For this assay, the target named is T1, human PTHR1 receptor (Homo sapiens, UniProt Q03431).
T1 construct: purchased Eurofins HTS030M
T1 sequence (Q03431 27-593): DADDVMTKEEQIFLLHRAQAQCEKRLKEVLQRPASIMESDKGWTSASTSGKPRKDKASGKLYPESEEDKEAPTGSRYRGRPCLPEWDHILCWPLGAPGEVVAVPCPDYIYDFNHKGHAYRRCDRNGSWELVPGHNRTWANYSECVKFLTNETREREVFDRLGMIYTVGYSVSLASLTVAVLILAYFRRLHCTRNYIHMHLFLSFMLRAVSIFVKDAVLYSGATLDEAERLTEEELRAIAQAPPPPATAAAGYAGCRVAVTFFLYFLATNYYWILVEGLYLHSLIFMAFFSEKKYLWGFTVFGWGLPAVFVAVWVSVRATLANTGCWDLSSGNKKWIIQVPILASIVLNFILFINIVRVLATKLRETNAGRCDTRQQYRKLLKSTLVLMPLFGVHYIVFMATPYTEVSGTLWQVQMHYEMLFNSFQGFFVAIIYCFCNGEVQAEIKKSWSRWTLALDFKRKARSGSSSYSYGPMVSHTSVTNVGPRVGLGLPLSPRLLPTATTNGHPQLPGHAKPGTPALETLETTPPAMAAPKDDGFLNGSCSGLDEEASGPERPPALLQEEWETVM
The assay can be described thus: Competitive antagonist binding assay for hPTH-R1 (radioactive competition binding, SPA beads). Conditions: human PTHR1 membranes, [125I]-[Nle8,18,Tyr34]-PTH(1-34) 0.2 nM, 90 minutes at room temperature; read-out: hPTHR1 Ki. In outline: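 Displacement of 0.2 nM radioiodinated [Nle8,18,Tyr34]-PTH(1-34) from membrane-bound human PTHR1 measured by scintillation proximity after 90 min at room temperature. Compounds typically 0-10,000 nM final, pH 7.4 HEPES/Mg/Ca buffer with BSA and detergent. Ki calculated from competition data.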

A value given as a limit tells only on which side of the number the result lay.

The Ki is a dissociation constant, usually derived from enzyme kinetics or from competition with a known ligand. Consider `CNCCNc1cc(F)c(N2C(=O)N(CCO)c3ncc(F)cc3-c3ccc(C#N)cc32)c(F)c1` [1-121, 10-(2,6-difluoro-4-{[2-(methylamino)ethyl]amino}phenyl)-4-fluoro-8-(2-hydroxyethyl)-9-oxo-6,8,10-triazatricyclo[9.4.0.0^2,7]pentadeca-1(11),2(7),3,5,12,14-hexaene-13-carbonitrile], for which the Ki is 100 to 1000 nM.

With `CCN1C(=O)N(c2c(F)cc(NCCNCCC(=O)O)cc2F)c2cc(C#N)ccc2-c2cc(Cl)cnc21` [1-178, 3-({2-[(4-{4-chloro-13-cyano-8-ethyl-9-oxo-6,8,10-triazatricyclo[9.4.0.0^2,7]pentadeca-1(11),2(7),3,5,12,14-hexaen-10-yl}-3,5-difluorophenyl)amino]ethyl}amino)propanoic acid], the Ki was less than 100 nM.

Take `CCN1C(=O)N(c2c(F)cc(N3CC[C@H](NC)C3)cc2F)c2cc(C#N)ccc2-c2cc(Cl)cnc21` [1-235, 4-chloro-10-{2,6-difluoro-4-[(3S)-3-(methylamino)pyrrolidin-1-yl]phenyl}-8-ethyl-9-oxo-6,8,10-triazatricyclo[9.4.0.0^2,7]pentadeca-1(11),2(7),3,5,12,14-hexaene-13-carbonitrile]: the Ki is less than 100 nM.

On to `CCN1C(=O)N(c2ncc(NCCNC)cc2F)c2cc(Cl)ccc2-c2cc(Cl)cnc21` [2-11, 4,13-dichloro-8-ethyl-10-(3-fluoro-5-{[2-(methylamino)ethyl]amino}pyridin-2-yl)-6,8,10-triazatricyclo[9.4.0.0^2,7]pentadeca-1(11),2(7),3,5,12,14-hexaen-9-one], for which the Ki was less than 100 nM.

As for `CCN1C(=O)N(c2c(F)cc(NCCNCCO)cc2F)c2cc(C#N)c(OC)cc2-c2cc(F)cnc21` [3-23, 10-[2,6-difluoro-4-({2-[(2-hydroxyethyl)amino]ethyl}amino)phenyl]-8-ethyl-4-fluoro-14-methoxy-9-oxo-6,8,10-triazatricyclo[9.4.0.0^2,7]pentadeca-1(11),2(7),3,5,12,14-hexaene-13-carbonitrile], the inhibitory constant (Ki) is less than 100 nM.

As to `CCN1C(=O)N(c2c(F)cc(N[C@@H](C)CNCCO)cc2F)c2cc(Cl)ccc2-c2cc(Cl)cnc21` [1-71, 4,13-dichloro-10-(2,6-difluoro-4-{[(2S)-1-[(2-hydroxyethyl)amino]propan-2-yl]amino}phenyl)-8-ethyl-6,8,10-triazatricyclo[9.4.0.0^2,7]pentadeca-1(11),2(7),3,5,12,14-hexaen-9-one], the Ki was less than 100 nM.

As for `CCN1C(=O)N(c2c(F)cc(NCCN[C@H](C)C(=O)O)cc2F)c2cc(C#N)ccc2-c2cc(Cl)cnc21` [1-236, (2R)-2-({2-[(4-{4-chloro-13-cyano-8-ethyl-9-oxo-6,8,10-triazatricyclo[9.4.0.0^2,7]pentadeca-1(11),2(7),3,5,12,14-hexaen-10-yl}-3,5-difluorophenyl)amino]ethyl}amino)propanoic acid], the Ki is less than 100 nM.

As to `CCN1C(=O)N(c2c(F)cc(NCCNC)cc2F)c2cc(Cl)cc(F)c2-c2cc(Cl)cnc21` [1-61, 4,13-dichloro-10-(2,6-difluoro-4-{[2-(methylamino)ethyl]amino}phenyl)-8-ethyl-15-fluoro-6,8,10-triazatricyclo[9.4.0.0^2,7]pentadeca-1(11),2(7),3,5,12,14-hexaen-9-one], the Ki is less than 100 nM.

`CCN1C(=O)N(c2c(F)cc(NCCNC)cc2F)c2cc(Cl)cc(F)c2-c2cc(F)cnc21` [1-94, 13-chloro-10-(2,6-difluoro-4-{[2-(methylamino)ethyl]amino}phenyl)-8-ethyl-4,15-difluoro-6,8,10-triazatricyclo[9.4.0.0^2,7]pentadeca-1(11),2(7),3,5,12,14-hexaen-9-one]: the inhibitory constant (Ki) was less than 100 nM.

In the case of `CCN1C(=O)N(c2c(F)cc(NCCN[C@@H](CO)C(=O)O)cc2F)c2cc(C#N)ccc2-c2cc(Cl)cnc21` [1-210, (2S)-2-({2-[(4-{4-chloro-13-cyano-8-ethyl-9-oxo-6,8,10-triazatricyclo[9.4.0.0^2,7]pentadeca-1(11),2(7),3,5,12,14-hexaen-10-yl}-3,5-difluorophenyl)amino]ethyl}amino)-3-hydroxypropanoic acid], the inhibition constant (Ki) was less than 100 nM.

On to `CC(C)N1C(=O)N(c2c(F)cc(NCCNCCO)cc2F)c2cc(C#N)ccc2-c2cc(Cl)cnc21` [1-92, 4-chloro-10-[2,6-difluoro-4-({2-[(2-hydroxyethyl)amino]ethyl}amino)phenyl]-9-oxo-8-(propan-2-yl)-6,8,10-triazatricyclo[9.4.0.0^2,7]pentadeca-1(11),2(7),3,5,12,14-hexaene-13-carbonitrile], for which the Ki is less than 100 nM.

Take `CCN1C(=O)N(c2c(F)cc(NCCNCCO)cc2F)c2cc(Cl)ccc2-c2c1ncc(F)c2C` [3-6, 13-chloro-10-[2,6-difluoro-4-({2-[(2-hydroxyethyl)amino]ethyl}amino)phenyl]-8-ethyl-4-fluoro-3-methyl-6,8,10-triazatricyclo[9.4.0.0^2,7]pentadeca-1(11),2(7),3,5,12,14-hexaen-9-one]: the Ki was less than 100 nM.

With `CCN1C(=O)N(c2c(F)cc(NCCNCCCC(=O)O)cc2F)c2cc(Cl)ccc2-c2cc(F)cnc21` [1-16, 4-({2-[(4-{13-chloro-8-ethyl-4-fluoro-9-oxo-6,8,10-triazatricyclo[9.4.0.0^2,7]pentadeca-1(11),2(7),3,5,12,14-hexaen-10-yl}-3,5-difluorophenyl)amino]ethyl}amino)butanoic acid], the Ki was less than 100 nM.

In the case of `CCN1C(=O)N(c2c(F)cc(NCCNCCO)cc2F)c2cc(Cl)ccc2-c2cc(C#N)ncc21` [3-22, 13-chloro-10-[2,6-difluoro-4-({2-[(2-hydroxyethyl)amino]ethyl}amino)phenyl]-8-ethyl-9-oxo-5,8,10-triazatricyclo[9.4.0.0^2,7]pentadeca-1(11),2(7),3,5,12,14-hexaene-4-carbonitrile], the Ki is less than 100 nM.

As for `CCN1C(=O)N(c2c(F)cc(NCCNC3CCOCC3)cc2F)c2cc(Cl)ccc2-c2cc(C#N)ncc21` [3-24, 13-chloro-10-[2,6-difluoro-4-({2-[(oxan-4-yl)amino]ethyl}amino)phenyl]-8-ethyl-9-oxo-5,8,10-triazatricyclo[9.4.0.0^2,7]pentadeca-1(11),2(7),3,5,12,14-hexaene-4-carbonitrile], the Ki was less than 100 nM.

For `CCN1C(=O)N(c2c(F)cc(NCCNCCCC(=O)O)cc2F)c2cc(C#N)ccc2-c2cc(Cl)cnc21` [1-58, 4-({2-[(4-{4-chloro-13-cyano-8-ethyl-9-oxo-6,8,10-triazatricyclo[9.4.0.0^2,7]pentadeca-1(11),2(7),3,5,12,14-hexaen-10-yl}-3,5-difluorophenyl)amino]ethyl}amino)butanoic Acid], the Ki is less than 100 nM.

`CCN1C(=O)N(c2c(F)cc(NCCNCCC(C)(C)C(=O)O)cc2F)c2cc(C#N)ccc2-c2cc(Cl)cnc21` [1-209, 4-({2-[(4-{4-chloro-13-cyano-8-ethyl-9-oxo-6,8,10-triazatricyclo[9.4.0.0^2,7]pentadeca-1(11),2(7),3,5,12,14-hexaen-10-yl}-3,5-difluorophenyl)amino]ethyl}amino)-2,2-dimethylbutanoic acid]: the Ki is less than 100 nM.

Take `CCN1C(=O)N(c2c(F)cc(NCCNCCF)cc2F)c2cc(Cl)ccc2-c2cc(Cl)cnc21` [1-59, 4,13-dichloro-10-[2,6-difluoro-4-({2-[(2-fluoroethyl)amino]ethyl}amino)phenyl]-8-ethyl-6,8,10-triazatricyclo[9.4.0.0^2,7]pentadeca-1(11),2(7),3,5,12,14-hexaen-9-one]: the Ki is less than 100 nM.

Turning to `CCN1C(=O)N(c2c(F)cc(NCCNCCO)cc2F)c2cc(C#N)ccc2-c2cc(F)cnc21` [1-82, 10-[2,6-difluoro-4-({2-[(2-hydroxyethyl)amino]ethyl}amino)phenyl]-8-ethyl-4-fluoro-9-oxo-6,8,10-triazatricyclo[9.4.0.0^2,7]pentadeca-1(11),2(7),3,5,12,14-hexaene-13-carbonitrile], the inhibition constant (Ki) is less than 100 nM.

With `CCN1C(=O)N(c2c(F)cc(NCCN3CCNC(=O)C3)cc2F)c2cc(C#N)ccc2-c2cc(Cl)cnc21` [1-128, 4-chloro-10-(2,6-difluoro-4-{[2-(3-oxopiperazin-1-yl)ethyl]amino}phenyl)-8-ethyl-9-oxo-6,8,10-triazatricyclo[9.4.0.0^2,7]pentadeca-1(11),2(7),3,5,12,14-hexaene-13-carbonitrile], the Ki is 100 to 1000 nM.

With `CNCCNc1cc(F)c(N2C(=O)N(C(C)C)c3ncc(F)cc3-c3c(F)cc(Cl)cc32)c(F)c1` [1-113, 13-chloro-10-(2,6-difluoro-4-{[2-(methylamino)ethyl]amino}phenyl)-4,15-difluoro-8-(propan-2-yl)-6,8,10-triazatricyclo[9.4.0.0^2,7]pentadeca-1(11),2(7),3,5,12,14-hexaen-9-one], the Ki was less than 100 nM.

Regarding `CCN1C(=O)N(c2c(F)cc(NCCNCCO)cc2F)c2cc(Cl)c(C)cc2-c2cccnc21` [3-2, 13-chloro-10-[2,6-difluoro-4-({2-[(2-hydroxyethyl)amino]ethyl}amino)phenyl]-8-ethyl-14-methyl-6,8,10-triazatricyclo[9.4.0.0^2,7]pentadeca-1(11),2(7),3,5,12,14-hexaen-9-one], the inhibition constant (Ki) is less than 100 nM.

Values taken from US20230159532A1, “PARATHYROID HORMONE (PTH) RECEPTOR ANTAGONISTS AND USES THEREOF” (Crinetics Pharmaceuticals, Inc., priority 2021, published 2023).
